Measurements as given in patent US20060069132A1, “Azolecarboxamide herbicides” (priority 2004, published 2006).

Legend:
cocklebur = assay: Test B pre-/postemergence herbicide test; type: in vivo, Xanthium strumarium; details: for Cocklebur plant response rating: postemergence, visual rating
Method in brief: (§1)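 Herbicidal effect was judged by eye on a 0–100 scale after plants stood 13 to 15 days in the greenhouse following pre- or postemergence treatment with surfactant-containing formulations.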

rice = assay: Test B flooded paddy test; type: in vivo, Oryza sativa; details: 1000 g ai/ha, visual rating, scale 0 to 100 (0 no effect, 100 complete control), 13 to 15 days
Method in brief: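 Greenhouse test; postemergence application to plants at 1–4 leaves (2–18 cm); paddy species at 2 leaves; evaluated visually vs controls at 13–15 days; scale 0–100 (100 = complete control).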

lambsquarters = assay: Test B pre-/postemergence herbicide test; type: in vivo, Chenopodium album; details: for Lambsquarters plant response rating: postemergence, visual rating
Method in brief: (§2)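 Greenhouse pot assay with simultaneous preemergence (treated seed) and postemergence (2–18 cm seedlings) applications of surfactant-containing, non-phytotoxic solvent formulations. Response scored visually 13–15 days later on a 0–100 scale, 100 meaning complete control.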

barnyardgrass [1] = assay: Test B flooded paddy test; type: in vivo, Echinochloa crus-galli; details: 1000 g ai/ha, visual rating, scale 0 to 100 (0 no effect, 100 complete control), 13 to 15 days
Method in brief: (§3)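 Treated at 2-leaf (paddy) or 1–4-leaf, 2–18 cm (postemergence); greenhouse 13–15 d; visual score vs control, 0 none to 100 complete control; dash = not tested.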

[2] = test system: small flower umbrella sedge; assay: Test B flooded paddy test; type: in vivo, Cyperus difformis; details: 1000 g ai/ha, visual rating, scale 0 to 100 (0 no effect, 100 complete control), 13 to 15 days
Method in brief: as §3

corn = assay: Test B pre-/postemergence herbicide test; type: in vivo, Zea mays
Method in brief: as §2

Surinam grass = assay: Test B pre-/postemergence herbicide test; type: in vivo, Urochloa decumbens; details: for Surinam Grass plant response rating: postemergence, visual rating
Method in brief: as §2

morningglory = assay: Test B pre-/postemergence herbicide test; type: in vivo, Ipomoea coccinea
Method in brief: as §1

large crabgrass = assay: Test B pre-/postemergence herbicide test; type: in vivo, Digitaria sanguinalis; details: for Crabgrass, Large plant response rating: postemergence, visual rating
Method in brief: as §2

ducksalad = assay: Test B flooded paddy test; type: in vivo, Heteranthera limosa; details: 1000 g ai/ha, visual rating, scale 0 to 100 (0 no effect, 100 complete control), 13 to 15 days
Method in brief: as §3

velvetleaf = assay: Test B pre-/postemergence herbicide test; type: in vivo, Abutilon theophrasti; details: for Velvetleaf plant response rating: postemergence, visual rating
Method in brief: as §2

giant foxtail = assay: Test B pre-/postemergence herbicide test; type: in vivo, Setaria faberi; details: for Foxtail, Giant plant response rating: postemergence, visual rating
Method in brief: as §2

blackgrass = assay: Test B postemergence herbicide test; type: in vivo, Alopecurus myosuroides; details: scale 0 (no effect) to 100 (complete control); for Plant response rating, Blackgrass: Postemergence, 500 g ai/ha, visual rating after 13 to 15 days; for Blackgrass plant response rating: postemergence, 125 g ai/ha, visual rating
Method in brief: as §3

wheat = assay: Test B postemergence herbicide test; type: in vivo, Triticum aestivum; set-up: key to Wheat plant response rating: 0 = no effect, 100 = complete control; details: scale 0 (no effect) to 100 (complete control); for Plant response rating, Wheat: Postemergence, 500 g ai/ha, visual rating after 13 to 15 days; for Wheat plant response rating: postemergence, 125 g ai/ha, visual rating
Method in brief: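 After treating 2-leaf paddy plants or 2–18 cm postemergence plants (1 to 4 leaves) with formulated chemical, researchers kept them in a greenhouse for 13–15 days. Effects were judged visually versus controls: 0 indicates none, 100 total control.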

barnyardgrass [3] = assay: Test B pre-/postemergence herbicide test; type: in vivo, Echinochloa crus-galli; details: for Barnyardgrass plant response rating: postemergence, visual rating
Method in brief: as §1

[4] = 500 g ai/ha, visual rating 0-100, 0 no effect, 100 complete control, preemergence
[5] = Postemergence, 500 g ai/ha, visual rating after 13 to 15 days, scale 0 (no effect) to 100 (complete control)
[6] = 125 g ai/ha, scale 0 (no effect) to 100 (complete control)
[7] = preemergence, 125 g ai/ha, 0 to 100 scale, 0 is no effect, 100 is complete control
[8] = postemergence, 125 g ai/ha, visual rating, scale 0 (no effect) to 100 (complete control)

C=CCn1nc(C(C)(C)C)cc1C(=O)Nc1cccc(C(C)=NO)c1 [Compound 117]
Plant response rating, Cocklebur (cocklebur; [4]): 30
Plant response rating, Cocklebur (cocklebur; [5]): 90
Cocklebur plant response rating (cocklebur; [6]): 30
Plant response rating, Cocklebur (cocklebur; [7]): 20
Rice plant response rating (rice): 50
Plant response rating, Lambsquarters (lambsquarters; [4]): 100
Plant response rating, Lambsquarters (lambsquarters; [5]): 90
Lambsquarters plant response rating (lambsquarters; [6]): 60
Plant response rating, Lambsquarters (lambsquarters; [7]): 90
Barnyardgrass plant response rating (barnyardgrass [1]): 70
Sedge, Umbrella plant response rating [2]: 90
Plant response rating, Corn (corn; [4]): 30
Plant response rating, Corn (corn; [7]): 0
Plant response rating, Surinam Grass (Surinam grass; [4]): 60
Plant response rating, Surinam Grass (Surinam grass; [5]): 40
Surinam Grass plant response rating (Surinam grass; [6]): 30
Plant response rating, Surinam Grass (Surinam grass; [7]): 30
Plant response rating, Morningglory (morningglory; [4]): 60
Plant response rating, Crabgrass, Large (large crabgrass; [4]): 100
Plant response rating, Crabgrass, Large (large crabgrass; [5]): 30
Crabgrass, Large plant response rating (large crabgrass; [6]): 10
Plant response rating, Crabgrass, Large (large crabgrass; [7]): 90
Ducksalad plant response rating (ducksalad): 80
Plant response rating, Velvetleaf (velvetleaf; [4]): 70
Plant response rating, Velvetleaf (velvetleaf; [5]): 50
Velvetleaf plant response rating (velvetleaf; [6]): 20
Plant response rating, Velvetleaf (velvetleaf; [7]): 60
Plant response rating, Foxtail, Giant (giant foxtail; [4]): 80
Plant response rating, Foxtail, Giant (giant foxtail; [5]): 20
Foxtail, Giant plant response rating (giant foxtail; [6]): 10
Plant response rating, Foxtail, Giant (giant foxtail; [7]): 20
Plant response rating, Blackgrass (blackgrass): 10
Blackgrass plant response rating (blackgrass): 0
Plant response rating, Wheat (wheat): 20
Wheat plant response rating (wheat): 10
Plant response rating, Barnyardgrass (barnyardgrass [3]; [4]): 90
Plant response rating, Barnyardgrass (barnyardgrass [3]; [5]): 30
Barnyardgrass plant response rating (barnyardgrass [3]; [6]): 20
Plant response rating, Barnyardgrass (barnyardgrass [3]; [7]): 60

CCC(=NO)c1cccc(NC(=O)c2cc(C(C)(C)C)nn2C)c1 [Compound 118]
Plant response rating, Cocklebur (cocklebur; [4]): 10
Plant response rating, Cocklebur (cocklebur; [5]): 90
Cocklebur plant response rating (cocklebur; [6]): 70
Plant response rating, Cocklebur (cocklebur; [7]): 0
Rice plant response rating (rice): 80
Plant response rating, Lambsquarters (lambsquarters; [4]): 0
Plant response rating, Lambsquarters (lambsquarters; [5]): 20
Lambsquarters plant response rating (lambsquarters; [6]): 0
Plant response rating, Lambsquarters (lambsquarters; [7]): 0
Barnyardgrass plant response rating (barnyardgrass [1]): 50
Sedge, Umbrella plant response rating [2]: 80
Plant response rating, Corn (corn; [4]): 10
Plant response rating, Corn (corn; [5]): 40
Corn plant response rating (corn; [8]): 20
Plant response rating, Corn (corn; [7]): 0
Plant response rating, Surinam Grass (Surinam grass; [4]): 50
Plant response rating, Surinam Grass (Surinam grass; [5]): 40
Surinam Grass plant response rating (Surinam grass; [6]): 40
Plant response rating, Surinam Grass (Surinam grass; [7]): 10
Plant response rating, Morningglory (morningglory; [4]): 60
Plant response rating, Morningglory (morningglory; [5]): 70
Morningglory plant response rating (morningglory; [8]): 20
Plant response rating, Morningglory (morningglory; [7]): 10
Plant response rating, Crabgrass, Large (large crabgrass; [4]): 100
Plant response rating, Crabgrass, Large (large crabgrass; [5]): 30
Crabgrass, Large plant response rating (large crabgrass; [6]): 20
Plant response rating, Crabgrass, Large (large crabgrass; [7]): 90
Ducksalad plant response rating (ducksalad): 80
Plant response rating, Velvetleaf (velvetleaf; [4]): 10
Plant response rating, Velvetleaf (velvetleaf; [5]): 40
Velvetleaf plant response rating (velvetleaf; [6]): 20
Plant response rating, Velvetleaf (velvetleaf; [7]): 0
Plant response rating, Foxtail, Giant (giant foxtail; [4]): 70
Plant response rating, Foxtail, Giant (giant foxtail; [5]): 20
Foxtail, Giant plant response rating (giant foxtail; [6]): 10
Plant response rating, Foxtail, Giant (giant foxtail; [7]): 10
Plant response rating, Blackgrass (blackgrass): 10
Blackgrass plant response rating (blackgrass): 0
Plant response rating, Wheat (wheat): 10
Wheat plant response rating (wheat): 10
Plant response rating, Barnyardgrass (barnyardgrass [3]; [4]): 90
Plant response rating, Barnyardgrass (barnyardgrass [3]; [5]): 30
Barnyardgrass plant response rating (barnyardgrass [3]; [6]): 10
Plant response rating, Barnyardgrass (barnyardgrass [3]; [7]): 10
